Molecules are shown by their SMILES.

This note sets out measurements from patent US7737159B2, “Antibacterial compounds” (Abbott Laboratories, priority 2004, dated 2010).

The assay has as its target bacterial protein synthesis (S30 extract from quinolone-succeptable Streptococcus pneumoniae ATCC 46919). Kind of assay: Translation assay, firefly luciferase reporter system with S30 Streptococcus pneumoniae extract. It counts as biochemical. As to conditions: luciferase mRNA, read-out: IC50, concentration causing 50% inhibition of bacterial protein synthesis. The protocol: Bacterial protein synthesis inhibitory activity of representative compounds of this invention having formula (I) and the commercially-available antibacterials in TABLE 2 was determined by translation assays using the firefly luciferase reporter system described by Murray et al., (2001), “Staphylococcus aureus Cell Extract Transcription-Translation Assay: Firefly Luciferase Reporter System for Evaluating Protein Translation Inhibitors,” Antimicrob. Agents Chemother. 45(6): 1900-1904, but replacing the Staphylococcus aureus S30 extract described therein with S30 Streptococcus pneumoniae extract from quinolone-succeptable Streptococcus pneumoniae ATCC 46919, and replacing plasmid coding for the luciferase gene with mRNA (encoding produced by in vitro transcription from the plasmid pAS10rbs3) which encoded the luciferase gene with an upstream Streptococcus pneumoniae promoter and Shine-Dalgarno site.

Consider `CC(=O)NC[C@H]1CN(c2ccc(N3CCOCC3)c(F)c2)C(=O)O1` [Linezolid], for which the IC50 was around 3000 nM.
